In PMC11790914, “Chemogenomics for steroid hormone receptors (NR3)” (Communications Chemistry, 2025):
“And” between values parts separate entries of the source, which are not always exact repeats. Equal entries are not always repeated.

Columns and labels:
[1] = biological target: T1, FGFR3 (Homo sapiens, UniProt P22607); experiment: Liability panel screening by DSF: FGFR3; assay type: binding; conditions: DSF, 20 µM, n=2; read-out: Mean ΔTM FGFR3
T1 construct: made in house
Method in brief: (§1)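 Thermal shift: in-house recombinant protein at 2 µM in 10 mM HEPES pH 7.5 with 500 mM NaCl, SYPRO Orange 1:1000, heated at 3 °C/min to 85 °C in technical duplicates. Tm is the Boltzmann inflection point, reported as ∆Tm in K.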

[2] = biological target: T2, CSNK1D (Homo sapiens, UniProt P48730); experiment: Liability panel screening by DSF: CSNK1D; assay type: binding; conditions: DSF, 20 µM, n=2; read-out: Mean ΔTM CSNK1D
T2 construct: made in house
Method in brief: as §1

[3] = biological target: T3, TRIM24 (Homo sapiens, UniProt O15164); experiment: Liability panel screening by DSF: TRIM24; assay type: binding; conditions: DSF, 20 µM, n=2; read-out: Mean ΔTM TRIM24
T3 construct: This panel comprised ten highly ligandable kinases and bromodomains; made in house
T3 sequence (O15164 899-1004 limits assumed): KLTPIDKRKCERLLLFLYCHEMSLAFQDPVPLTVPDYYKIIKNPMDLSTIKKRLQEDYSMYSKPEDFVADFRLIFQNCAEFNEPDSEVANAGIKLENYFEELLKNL
Method in brief: as §1

[4] = biological target: T4, GSK3B (Homo sapiens, UniProt P49841); experiment: Liability panel screening by DSF: GSK3B; assay type: binding; conditions: DSF, 20 µM, n=2; read-out: Mean ΔTM GSK3B
T4 construct: made in house

[5] = biological target: T5, AURKA (Homo sapiens, UniProt O14965); experiment: Liability panel screening by DSF: AURKA; assay type: binding; conditions: DSF, 20 µM, n=2; read-out: Mean ΔTM AURKA
T5 construct: made in house
T5 sequence (O14965 1-403): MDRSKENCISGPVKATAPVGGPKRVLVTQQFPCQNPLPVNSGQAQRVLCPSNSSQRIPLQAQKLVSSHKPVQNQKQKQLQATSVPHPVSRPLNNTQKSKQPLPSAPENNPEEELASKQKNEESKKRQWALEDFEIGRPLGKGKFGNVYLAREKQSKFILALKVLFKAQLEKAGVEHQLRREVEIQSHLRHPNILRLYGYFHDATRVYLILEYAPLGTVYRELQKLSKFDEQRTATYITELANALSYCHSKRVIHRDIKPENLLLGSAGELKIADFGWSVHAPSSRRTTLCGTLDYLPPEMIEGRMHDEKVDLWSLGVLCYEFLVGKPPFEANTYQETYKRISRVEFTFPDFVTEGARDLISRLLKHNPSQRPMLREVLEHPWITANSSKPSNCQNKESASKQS
Method in brief: as §1

[6] = tested on: HEK293T cells; experiment: Cytotoxicity: necrosis induction (red fluorescent dye for permeable plasma membranes); assay type: cell-based; conditions: 1 µM, 24 h, necrotic cell count normalized to 0.1% DMSO, single replicates;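 further: compounds applied in DMEM high glucose with 0.1% FCS and 0.1% DMSO, necrotic HEK293T cells counted by red staining of cells whose plasma membranes had become permeable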
[7] = tested on: ATF6 activity in Hela ATF6 reporter cells; experiment: Endoplasmic reticulum stress assay (ATF6 Renilla luciferase reporter, tunicamycin); assay type: cell-based
Method in brief: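 ER stress was induced by 100 ng/mL tunicamycin added 4 h after compound (0.1% DMSO) to HeLa ATF6 reporter cells. After 18 h more, Renilla luciferase signal was read and expressed relative to DMSO control, n=5 biological replicates.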

[8] = tested on: HEK293T cells; experiment: Cytotoxicity: apoptosis induction (caspase-3/7 DEVD fluorogenic DNA dye); conditions: 1 µM; HEK293T, 24 h; apoptotic cell count normalized to 0.1% DMSO; single replicates
[9] = biological target: T6, ABL1 (Homo sapiens, UniProt P00519); experiment: Liability panel screening by DSF: ABL1; assay type: binding; conditions: DSF, 20 µM, n=2; read-out: Mean ΔTM ABL1
T6 construct: made in house
Method in brief: as §1

[10] = biological target: T7, CDK2 (Homo sapiens, UniProt P24941); experiment: Liability panel screening by DSF: CDK2; assay type: binding; conditions: DSF, 20 µM, n=2; read-out: Mean ΔTM CDK2
T7 construct: made in house
Method in brief: as §1

[11] = tested on: HEK293T cells; experiment: Cytotoxicity: metabolic activity (WST-8 / CCK-8 assay); conditions: 1 µM; HEK293T, 24 h; WST-8; normalized to 0.1% DMSO; single replicates
[12] = biological target: T8, BRD4 (Homo sapiens, UniProt O60885); experiment: Liability panel screening by DSF: BRD4; assay type: binding; conditions: DSF, 20 µM, n=2; read-out: Mean ΔTM BRD4
T8 construct: This panel comprised ten highly ligandable kinases and bromodomains; made in house
Method in brief: as §1

[13] = tested on: NR3C1 (GR); conditions: (lit.); ref Supplementary Table 1; read-out: Potency [nM] EC50, NR3C1 (GR); cited from earlier work
[14] = biological target: T9, BRPF1 (Homo sapiens, UniProt P55201); experiment: Liability panel screening by DSF: BRPF1; assay type: binding; conditions: DSF, 20 µM, n=2; read-out: Mean ΔTM BRPF1
T9 construct: This panel comprised ten highly ligandable kinases and bromodomains; made in house
T9 sequence (P55201 628-732 limits assumed): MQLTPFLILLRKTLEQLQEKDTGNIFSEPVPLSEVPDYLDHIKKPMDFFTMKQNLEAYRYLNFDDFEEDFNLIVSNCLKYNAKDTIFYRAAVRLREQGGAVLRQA
Method in brief: as §1

[15] = tested on: HEK293T cells; experiment: Cytotoxicity: growth-rate (change in confluence over 24 h); conditions: 1 µM, normalized to 0.1% DMSO control, single replicates (n=1...)
[16] = tested on: Gal4-VP16; assay type: cell-based; conditions: 1 µM; vs. DMSO ctrl; single replicates n=1-3
[17] = tested on: NF-κB activity in HEK293 NF-κB reporter cells; experiment: NF-kB activity assay (GFP reporter, ionomycin/PMA); assay type: cell-based; conditions: for Mean NFκB response: n=3; for NF-κB activity (inflammatory response to ionomycin/PMA): HEK293 NF-κB reporter cells, compounds at recommended concentrations, imaged over 24 h, n = 3
Method in brief: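 Reporter readout: GFP-expressing cells normalized to confluence, imaged every 90 min across 24 h after ionomycin (100 ng/mL)/PMA (10 ng/mL) stimulation of HEK293 cells pre-treated 4 h with compound (0.1% DMSO); triplicate independent experiments.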

[18] = biological target: T10, MAPK1 (Homo sapiens, UniProt P28482); experiment: Liability panel screening by DSF: MAPK1; assay type: binding; conditions: DSF, 20 µM, n=2; read-out: Mean ΔTM MAPK1
T10 construct: made in house
Method in brief: as §1

[19] = tested on: NR3C4 (AR); conditions: cited from earlier work

T10 sequence (P28482 whole entry, species assumed): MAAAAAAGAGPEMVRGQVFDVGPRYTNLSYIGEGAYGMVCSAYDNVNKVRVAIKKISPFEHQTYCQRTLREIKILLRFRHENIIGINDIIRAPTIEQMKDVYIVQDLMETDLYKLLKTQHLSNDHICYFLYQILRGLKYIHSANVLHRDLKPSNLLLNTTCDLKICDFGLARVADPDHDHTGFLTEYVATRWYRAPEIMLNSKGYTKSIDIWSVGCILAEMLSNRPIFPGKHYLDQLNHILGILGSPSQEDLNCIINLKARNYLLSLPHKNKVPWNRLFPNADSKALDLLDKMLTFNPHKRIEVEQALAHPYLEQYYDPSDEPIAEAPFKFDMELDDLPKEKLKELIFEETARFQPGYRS
T4 sequence (P49841 whole entry, species assumed): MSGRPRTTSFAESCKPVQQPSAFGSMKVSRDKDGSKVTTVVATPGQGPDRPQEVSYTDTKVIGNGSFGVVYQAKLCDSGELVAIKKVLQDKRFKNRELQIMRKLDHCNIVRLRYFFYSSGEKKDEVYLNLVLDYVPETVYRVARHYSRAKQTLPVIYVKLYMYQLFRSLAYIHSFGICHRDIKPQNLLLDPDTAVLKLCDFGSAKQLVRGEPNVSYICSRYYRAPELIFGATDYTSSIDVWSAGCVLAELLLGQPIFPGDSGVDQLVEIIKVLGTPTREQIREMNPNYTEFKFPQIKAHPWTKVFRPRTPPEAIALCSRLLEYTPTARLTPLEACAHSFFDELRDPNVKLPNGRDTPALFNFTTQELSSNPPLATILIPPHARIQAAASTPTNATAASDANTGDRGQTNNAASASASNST
T6 sequence (P00519 whole entry, species assumed): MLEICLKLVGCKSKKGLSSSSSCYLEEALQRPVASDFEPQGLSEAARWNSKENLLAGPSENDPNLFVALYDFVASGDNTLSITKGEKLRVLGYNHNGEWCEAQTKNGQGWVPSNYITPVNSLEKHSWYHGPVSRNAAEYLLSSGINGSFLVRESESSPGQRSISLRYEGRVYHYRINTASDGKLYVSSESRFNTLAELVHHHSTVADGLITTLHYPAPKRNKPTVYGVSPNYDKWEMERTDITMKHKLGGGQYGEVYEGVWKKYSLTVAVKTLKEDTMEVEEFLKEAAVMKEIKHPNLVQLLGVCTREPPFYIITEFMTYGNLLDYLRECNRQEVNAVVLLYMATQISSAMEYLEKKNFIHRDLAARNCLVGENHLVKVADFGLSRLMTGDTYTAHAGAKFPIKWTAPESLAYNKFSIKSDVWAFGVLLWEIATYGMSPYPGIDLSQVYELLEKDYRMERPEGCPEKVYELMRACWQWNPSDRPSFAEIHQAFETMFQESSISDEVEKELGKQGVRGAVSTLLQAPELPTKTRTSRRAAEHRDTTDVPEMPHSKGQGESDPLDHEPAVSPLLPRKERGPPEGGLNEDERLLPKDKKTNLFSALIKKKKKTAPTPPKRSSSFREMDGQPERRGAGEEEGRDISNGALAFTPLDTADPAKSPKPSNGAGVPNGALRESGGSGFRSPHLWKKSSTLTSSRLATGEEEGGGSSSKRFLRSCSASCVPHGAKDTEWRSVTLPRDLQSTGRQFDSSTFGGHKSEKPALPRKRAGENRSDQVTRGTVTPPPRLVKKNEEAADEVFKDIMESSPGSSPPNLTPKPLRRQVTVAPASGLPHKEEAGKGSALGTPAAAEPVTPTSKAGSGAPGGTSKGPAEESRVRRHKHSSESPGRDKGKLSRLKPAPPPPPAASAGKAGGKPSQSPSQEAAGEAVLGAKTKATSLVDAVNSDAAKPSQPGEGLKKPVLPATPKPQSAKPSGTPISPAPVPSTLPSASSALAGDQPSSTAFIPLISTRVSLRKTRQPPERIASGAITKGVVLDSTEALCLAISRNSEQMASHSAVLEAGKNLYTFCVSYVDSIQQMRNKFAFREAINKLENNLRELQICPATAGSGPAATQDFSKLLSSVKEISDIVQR
T1 sequence (P22607 23-806, species assumed): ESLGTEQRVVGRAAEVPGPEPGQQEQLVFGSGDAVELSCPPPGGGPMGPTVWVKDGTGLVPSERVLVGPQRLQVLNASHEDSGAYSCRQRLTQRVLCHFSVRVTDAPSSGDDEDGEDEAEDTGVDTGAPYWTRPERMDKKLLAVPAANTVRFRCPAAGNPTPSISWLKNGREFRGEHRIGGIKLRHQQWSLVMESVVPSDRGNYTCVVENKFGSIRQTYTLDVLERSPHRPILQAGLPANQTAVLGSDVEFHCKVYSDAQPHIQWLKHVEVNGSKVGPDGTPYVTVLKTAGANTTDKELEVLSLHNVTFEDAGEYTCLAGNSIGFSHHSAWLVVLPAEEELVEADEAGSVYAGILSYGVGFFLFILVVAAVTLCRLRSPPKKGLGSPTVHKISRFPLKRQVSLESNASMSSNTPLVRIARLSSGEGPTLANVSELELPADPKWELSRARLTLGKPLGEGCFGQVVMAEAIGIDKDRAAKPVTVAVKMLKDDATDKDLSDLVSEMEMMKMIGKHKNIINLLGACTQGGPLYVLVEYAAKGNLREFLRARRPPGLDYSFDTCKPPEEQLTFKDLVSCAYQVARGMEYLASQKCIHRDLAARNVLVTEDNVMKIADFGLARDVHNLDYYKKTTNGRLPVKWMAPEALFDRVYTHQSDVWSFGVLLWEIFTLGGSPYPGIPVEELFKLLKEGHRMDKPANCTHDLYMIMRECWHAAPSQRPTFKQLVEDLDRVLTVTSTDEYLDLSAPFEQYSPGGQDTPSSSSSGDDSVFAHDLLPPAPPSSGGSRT
T2 sequence (P48730 whole entry, species assumed): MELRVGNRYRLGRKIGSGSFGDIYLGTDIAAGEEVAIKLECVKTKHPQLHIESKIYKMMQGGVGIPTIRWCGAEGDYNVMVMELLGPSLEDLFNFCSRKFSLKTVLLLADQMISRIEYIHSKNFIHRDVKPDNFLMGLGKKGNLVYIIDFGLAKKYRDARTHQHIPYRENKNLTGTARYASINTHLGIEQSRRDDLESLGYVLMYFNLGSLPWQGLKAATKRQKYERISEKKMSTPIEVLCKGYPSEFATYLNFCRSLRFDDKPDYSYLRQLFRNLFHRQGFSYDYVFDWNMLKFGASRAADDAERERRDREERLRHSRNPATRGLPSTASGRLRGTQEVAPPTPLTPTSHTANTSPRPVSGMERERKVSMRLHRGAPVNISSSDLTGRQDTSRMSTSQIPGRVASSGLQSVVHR

| Compound | ΔTm at 20 µM [1] | ΔTm at 20 µM [2] | ΔTm at 20 µM [3] | ΔTm at 20 µM [4] | ΔTm at 20 µM [5] | Necrosis induction [NI] [6] | Apoptosis induction [AI] [8] | ΔTm at 20 µM [9] | ΔTm at 20 µM [10] | Metabolic activity [MA] [11] | ΔTm at 20 µM [12] | ΔTm at 20 µM [14] | Growth rate [GR] [15] | VP16 control [fold reporter gene activity] [16] | Mean NFκB response ([17]; 1 µM, 1,5 h) | Mean NFκB response ([17]; 1 µM, 4,5 h) | Mean NFκB response ([17]; 1 µM, 7,5 h) | Mean NFκB response ([17]; 1 µM, 10,5 h) | Mean NFκB response ([17]; 1 µM, 13,5 h) | Mean NFκB response ([17]; 1 µM, 16,6 h) | further results |
| --- | --- | --- | --- | --- | --- | --- | --- | --- | --- | --- | --- | --- | --- | --- | --- | --- | --- | --- | --- | --- | --- |
| COc1cccc([C@@H](Oc2ccc3c(cnn3-c3ccc(F)cc3)c2)[C@H](C)NC(=O)C(F)(F)F)c1 [AZD5423] | -1.62 °C | -5.6 °C | -2.31 °C | 0.67 °C | -3.28 °C | 0.69 and 0.73 and 0.65 and 0.80 | 0.73 and 0.76 and 0.75 and 0.81 and 1.24 and 2.34 | -0.84 °C | -0.35 °C | 1.02 and 1.00 and 0.98 and 1.07 and 1.09 and 0.99 and 1.14 and 1.15 | -1.37 °C | -0.79 °C | 0.81 and 2.24 and 0.71 and 1.01 and 0.62 and 1.06 and 0.88 and 0.60 and 1.03 and 2.44 | 0.65 fold reporter gene activity and 0.98 fold reporter gene activity and 1.07 fold reporter gene activity | 2076.25 GFP+-cells/confluence ∙ 1000 | 2908.84 GFP+-cells/confluence ∙ 1000 | 5573.87 GFP+-cells/confluence ∙ 1000 | 12373.33 GFP+-cells/confluence ∙ 1000 | 17196.67 GFP+-cells/confluence ∙ 1000 | 21116.67 GFP+-cells/confluence ∙ 1000 | ATF6 activity (tunicamycin-induced endoplasmic reticulum stress) ([7]; Hela ATF6 reporter cells, tunicamycin 100 ng/mL, 18 h, compounds at recommended concentrations, n = 5): Consistently weaker ATF6 activity; activity at 1 µM ([7]; Homo sapiens, HeLa, 1 µM, single replicates n=1 to n=5, read-out: ER stress [rel. ATF6 activity]): 84%; EC50 [13]: 0.9 ± 0.2 nM; Mean NFκB response ([17]; 1 µM, 19,5 h): 24016.67 GFP+-cells/confluence ∙ 1000; Mean NFκB response ([17]; 1 µM, 22,5 h): 27100.00 GFP+-cells/confluence ∙ 1000; Mean NFκB response ([17]; 1 µM, 3 h): 2386.46 GFP+-cells/confluence ∙ 1000; Mean NFκB response ([17]; 1 µM, 6 h): 3758.89 GFP+-cells/confluence ∙ 1000; Mean NFκB response ([17]; 1 µM, 9 h): 9073.33 GFP+-cells/confluence ∙ 1000; Mean NFκB response ([17]; 1 µM, 12 h): 14943.33 GFP+-cells/confluence ∙ 1000; Mean NFκB response ([17]; 1 µM, 15 h): 19223.33 GFP+-cells/confluence ∙ 1000; Mean NFκB response ([17]; 1 µM, 18 h): 22723.33 GFP+-cells/confluence ∙ 1000; Mean NFκB response ([17]; 1 µM, 21 h): 25420.00 GFP+-cells/confluence ∙ 1000; Mean NFκB response ([17]; 1 µM, 24 h): 27183.33 GFP+-cells/confluence ∙ 1000; NF-κB activity (inflammatory response to ionomycin/PMA) [17]: consistently delayed and strongly diminished NF-κB activity; ΔTm at 20 µM [18]: -5.37 °C |
| CC(=O)O[C@]1(C(C)=O)CC[C@H]2[C@@H]3C=C(Cl)C4=CC(=O)[C@@H]5C[C@@H]5[C@]4(C)[C@H]3CC[C@@]21C [Cyproterone acetate] | 0.57 °C | 0.16 °C | -1.08 °C | -0.72 °C | -1.49 °C | 0.92 and 0.81 and 0.87 and 0.98 | 0.80 and 0.89 and 0.91 and 1.07 and 1.28 and 0.67 | 0.36 °C | 0.15 °C | 1.02 (2×) and 0.92 and 0.98 and 1.01 and 0.94 and 0.99 and 1.05 | -1.71 °C | -1.28 °C | 1.11 and 1.76 and 1.28 and 1.77 and 1.08 and 0.80 (2×) and 0.94 and 0.96 and 1.44 | 1.23 fold reporter gene activity and 1.09 fold reporter gene activity and 0.95 fold reporter gene activity | 3306.11 GFP+-cells/confluence ∙ 1000 | 3956.53 GFP+-cells/confluence ∙ 1000 | 9166.88 GFP+-cells/confluence ∙ 1000 | 19295.79 GFP+-cells/confluence ∙ 1000 | 27594.44 GFP+-cells/confluence ∙ 1000 | 34636.12 GFP+-cells/confluence ∙ 1000 | rel. activity from literature, NR3C4 (AR): % rem. act. of DHT [19]: 52 ± 6%; IC50 ([19]; read-out: Potency [nM] IC50, NR3C4 (AR)): 26 ± 23 nM; Mean NFκB response ([17]; 1 µM, 19,5 h): 38741.56 GFP+-cells/confluence ∙ 1000; Mean NFκB response ([17]; 1 µM, 22,5 h): 41845.76 GFP+-cells/confluence ∙ 1000; Mean NFκB response ([17]; 1 µM, 3 h): 3525.65 GFP+-cells/confluence ∙ 1000; Mean NFκB response ([17]; 1 µM, 6 h): 5348.79 GFP+-cells/confluence ∙ 1000; Mean NFκB response ([17]; 1 µM, 9 h): 14582.16 GFP+-cells/confluence ∙ 1000; Mean NFκB response ([17]; 1 µM, 12 h): 23573.19 GFP+-cells/confluence ∙ 1000; Mean NFκB response ([17]; 1 µM, 15 h): 31392.99 GFP+-cells/confluence ∙ 1000; Mean NFκB response ([17]; 1 µM, 18 h): 36648.57 GFP+-cells/confluence ∙ 1000; Mean NFκB response ([17]; 1 µM, 21 h): 40465.37 GFP+-cells/confluence ∙ 1000; Mean NFκB response ([17]; 1 µM, 24 h): 42894.68 GFP+-cells/confluence ∙ 1000; NF-κB activity (inflammatory response to ionomycin/PMA) [17]: tended to enhance NF-κB activity; ΔTm at 20 µM [18]: -0.22 °C |
